From patent US11975005B2, “Treatment of respiratory diseases” (TIANLI BIOTECH PTY LTD, priority 2015, dated 2024)

Assays:
[1] = system: glucocorticoid response element (GRE) activity; experiment: GRE activity / GRE reporter in BEAS-2B cells; format: cell-based, human; settings: for TGFβ1-induced suppression of the GRE activity stimulated by Dex (30 nM): PF670462 1 or 10 μM 30 min before TGFβ1 for 24 hours
Experimental: Data are presented as the means and SEM of 3 independent experiments. *P<0.05, cf corresponding Dex 30 nM response.
(§1) The methods used in Examples 1 to 5 (and 10, 19, 20) are similar to those reported in Salem et al 2012 (Br J Pharmacol. 166:2036-2048) and again in Keenan et al 2014 (Respiratory Research, e15:55) in which methods for cell culture, GRE assays and gene expression measurements are fully described. Additional methods for growth of respiratory syncytial virus (RSV) and rhinovirus (RV) are described in Collins et al 2007 (Respir Physiol Neurobiol. 2007 Jun. 15; 156(3):345-52.) and by Xatzipsalti and papdopoulos, 2007 (Contrib Microbiol. 2007; 14:33-41).

[2] = system: GRE-dependent gene expression; experiment: Glucocorticoid-induced gene expression in BEAS-2B cells; format: cell-based, human
Description: as §1
Data are presented as the means and SEM of 4 independent experiments. *P<0.05, cf corresponding Dex 30 nM response. […] Thus, TNFα contribution to glucocorticoid resistance, may be independent of TGFβ. The resistance is exemplified by the epithelial sodium channel alpha subunit SCNN1a which assembles into a Na channel that is thought to contribute to water reabsorption from the airspaces that are flooded during acute lung injury.
TGFβ suppression ranged in magnitude amongst the genes selected for analysis. […] TGFβ and Dex synergise in increasing the expression of PAI-1 (FIG. 24B).

RSV [3] = experiment: RSV infection in Balb/C mice, PF670462 on days 3, 4 and 5; format: in vivo
GC responsive genes = experiment: Topical (intranasal) PF670462 in naïve Balb/c mice, lung gene expression; format: in vivo; settings: naïve Balb/C female mice; PF670462 0.6 μg intranasal 4 and 24 hours before post mortem
RSV [4] = experiment: 5 day model of RSV infection, treatments from day 1; format: in vivo, mice
[5] = system: human parenchymal fibroblasts; experiment: TGFβ-induced fibrogenic gene expression in human parenchymal lung fibroblasts; format: cell-based
Description: Experiments described in the current Example and Example 14 involved culture of human parenchymal fibroblasts, measurement of their proliferation and gene expression response, the methods for which are detailed in Schuliga et al 2009 (Am J Respir Cell Mol Biol. 2009; 41(6):731-41).
The investigation of fibrogenesis may be undertaken in in vivo models typically using rodents. However, differences in behavior of cell types and species differences in protein structures and signaling systems create some limitations in the predictive value of such models. Additional valuable evidence of impacts on fibrogenesis can be obtained from the use of human fibroblasts isolated from the parenchyma and maintained in cell culture (Schuliga et al. (2009) Am J Respir Cell Mol Biol 41(6):731-741; Westergren-Thorsson et al. (2004) Int J Biochem Cell Biol 36(8): 1573-1584).
The data shown is for parenchymal lung fibroblasts from both patients with the pulmonary fibrotic disease, idiopathic pulmonary fibrosis (IPF) and those derived samples of non-IPF donors. […] Colla is a subunit of the fibrillar type collagen that is deposited in excess in the extracellular matrix in fibrotic lesions.
FIG. 15B was performed in the same manner as for FIG. 15A except that in this experiment the fibroblasts are cultured as a suspended spheroid, rather than in 2D monolayer culture.

bleomycin-treated mice = system: bleomycin-treated mice
Description: Bleomycin is commonly used in mice to model pulmonary fibrosis. This anti-cancer agent is known to induce pulmonary fibrosis in a subset of patients. […] Eventually the intensity of the fibrosis declines but never fully resolves. Early treatment in the model (during the first 3 days) may influence the outcome via anti-inflammatory effects (Limjunyawong et al. (2014) Physiol Rep. 2(2): e00249). Delayed treatment is used to specifically examine impact on the fibrogenic process.

HDM allergen = experiment: House dust mite (HDM) allergen challenge in mice; format: in vivo
Experimental: (§2) The conduct of the house dust mite allergy model with RSV complication was conducted as described herein and using the approaches described in Fuchs and Braun 2008 (Curr Drug Targets. 2008 June; 9(6):495-502).

RSV [6] = experiment: HDM allergen challenge with RSV infection in mice; format: in vivo; settings: HDM allergen challenged mice infected with 2 million RSV virions 3 days prior to post mortem
Experimental: as §2

[7] = BEAS-2B, Dex 100 nM, PF670462 1-10 μM prior incubation
[8] = FIG. 6A, BEAS-2B, SB431542 1 μM, PF670462 10 μM
[9] = Mock-treated mice, PF670462 ip, RT-qPCR
[10] = female Balb/C mice inoculated with RSV, Dex 1 mg/kg (i.p.)/day from day 1, PF670462 30 mg/kg days 3, 4 and 5
[11] = 3-day bleomycin, female mice, PF670462 30 mg/kg ip
[12] = 14 days bleomycin, PF670462 30 mg/kg/day delayed until day 3
[13] = 21 day bleomycin, female mice, PF670462 daily from day 8 until day 21
[14] = 21 day bleomycin, female mice, PF670462 day 8 to 21

Nc1nccc(-c2c(-c3ccc(F)cc3)ncn2C2CCCCC2)n1 [PF670462]
maximum effect of the glucocorticoid (budesonide, dexamethasone 1-100 nM) on GRE reporter construct ([1]; BEAS 2B cells, PF670462 0.3-10 μM): concentration dependently increased | TGFβ1-induced suppression of the GRE activity stimulated by Dex (30 nM) ([1]; BEAS-2B cells): concentration-dependently attenuated | TGFβ1-induced suppression of the GRE activity stimulated by Dex (30 nM) ([1]; BEAS-2B cells, listed as PF674062): prevents | impairment of Dexamethasone 30 nM GRE responses by Rhinovirus (RV16) infection ([1]; BEAS-2B cells, RV16 0.1 or 1.0 MOI, SB431542 1 μM): prevented | Suppression of glucocorticoid-induced GRE responses to Dex (30 nM) induced by the combination TNFα, IL-13 and IL-4 ([1]; BEAS-2B cells, cytokines each at 1 or 10 ng/ml, PF670462 1 or 10 μM): attenuated | suppression of Dex (30 nM) gene expression response (SCNN1a) induced by IL-13/IL-4 ([2]; BEAS-2B cells, IL-13/IL-4 at 10 ng/ml, PF670462 1 or 10 μM, SB431542 1 μM): partially attenuated | RSV-induced impairment of Dexamethasone ZBTB16 gene expression responses ([2]; BEAS-2B cells, RSV 0.1 or 1.0 MOI, pretreatment): prevented | impairment of Dexamethasone 30 nM GILZ gene expression responses by RV16 infection ([2]; BEAS-2B cells, RV16 1.0 MOI, pretreatment): greatly diminished | TGFβ1 induced suppression of gene expression responses to Dex (30 nM), exemplified by SCNN1a expression ([2]; BEAS-2B cells, TGFβ1 24 hours, PF670462 1 or 10 μM): concentration dependently attenuated | suppression of Dex (30 nM) gene expression response (SCNN1a) induced by the combination TNFα, IL-13 and IL-4 ([2]; BEAS-2B cells, each at 0.1 ng/ml, PF670462 1 or 10 μM, SB431542 1 μM): partially attenuated | TGFβ suppression of glucocorticoid-induced CDKN1C (p57kip2) expression ([2]; BEAS-2B, Dex 100 nM, PF670462 1-10 μM): unaffected | TGFβ suppression of Dex-induced expression of FKBP5 [2, 7]: prevented | TGFβ suppression of Dex-induced expression of GILZ [2, 7]: prevented | TGFβ suppression of Dex-induced expression of SCNNIA (ENaCα) [2, 7]: prevented | TGFβ suppression of Dex-induced expression of ZBTB16 (PLZF) [2, 7]: prevented | increase in expression of PAI-1 by TGFβ and Dex ([2]; BEAS-2B, FIG. 24B, PF670462 1-10 μM): concentration-dependently reduced | levels of GILZ in RV infected cells [2, 8]: increased | levels of GILZ in uninfected cells [2, 8]: but not in uninfected cells | RV infection-induced decrease of Dex-induced GILZ expression ([2]; FIG. 6B, BEAS-2B, SB431542 3 μM, PF670462 3 μM): prevented | expression of CXCL5 (RSV [3]; FIG. 8B, during RSV infection): no effect alone | expression of KC (RSV [3]; FIG. 8B, during RSV infection): no effect alone | expression of TNFα (RSV [3]; FIG. 8B, during RSV infection): no effect alone | IFN expression (IFNα, IFNβ and IFNγ) (RSV [3]; FIG. 8C, RSV treated mice, bronchoalveolar lavage cells and lung tissue, PF670462 given with Dex): prevented | expression of GILZ in lung tissue (RSV [3]; [9]): directly stimulates | expression of MKP1 in lung tissue (RSV [3]; [9]): neither Dex nor PF670462 alone increased expression | expression of ZBTB16 in lung tissue (RSV [3]; [9]): directly stimulates | bronchoalveolar lavage fluid (BALF) cellular content (RSV [3]; [10]): no effect | bronchoalveolar lavage fluid (BALF) protein content (RSV [3]; [10]): no effect | effect on the GC responsive genes in lung tissue (GC responsive genes): direct stimulatory effect | Levels of IFN β (RSV [4]): enhanced | Levels of IFN λ 2 (RSV [4]): enhanced | Levels of IFN λ 3 (RSV [4]): enhanced | TNFα expression in BAL cells when added to Dex treatment (RSV [4]): further effect | accumulation of inflammatory cells in the BAL fluid (RSV [4]; administered from day 1): reduced | TNFα expression levels in BAL cells (RSV [4]; agent alone): directly suppresses | TGFβ induction of Col1a (collagen 1A) expression ([5]; 2D monolayer fibroblasts from IPF and non-IPF donors, TGFβ 24 hour, 3 μM): significantly suppressed | TGFβ-induced collagen 1A expression in IPF fibroblasts cultured as suspended spheroid ([5]; FIG. 15B, 3 μM): inhibits | TGFβ-induced collagen 1A increase in non-IPF derived cultures as suspended spheroid ([5]; FIG. 15B, 3 μM): not signficantly affected | fibrogenic actions of TGFβ (FIGS. 15A-C, collagen 1A and CTGF) ([5]; IPF or non-IPF donors, 2D or 3D): inhibited | Bleomycin induction of CTGF in lung tissue (bleomycin-treated mice; [11]): significantly reduced | Bleomycin induction of Col1a in lung tissue (bleomycin-treated mice; [11]): significantly reduced | Bleomycin induction of PAI-1 in lung tissue (bleomycin-treated mice; [11]): significantly reduced | Bleomycin induction of TIMP1 in lung tissue (bleomycin-treated mice; [11]): significantly reduced | BAL protein levels (bleomycin-treated mice; 3-day bleomycin, female mice, PF670462 30 mg/kg ip once daily): significantly reduced | BAL cells (increase by bleomycin) (bleomycin-treated mice; 3-day bleomycin, male mice): but not in PF670462- or Dex-treated mice | Col1A expression increased by bleomycin, lung tissue (bleomycin-treated mice; 3-day bleomycin, male mice): reduced | Col3 expression increased by bleomycin, lung tissue (bleomycin-treated mice; 3-day bleomycin, male mice): reduced | IL-6 increases in response to bleomycin, lung tissue (bleomycin-treated mice; 3-day bleomycin, male mice): reduced | TIMP1 expression increased by bleomycin, lung tissue (bleomycin-treated mice; 3-day bleomycin, male mice): reduced | fibrogenesis / efficacy in the bleomycin model (bleomycin-treated mice; 4 independent studies, 3 to 21 days, male and female mice, PF670462 30 mg/kg/day, ip): able to reduce fibrogenesis | accumulation of cells on the BAL fluid (bleomycin-treated mice; [12]): significantly reduced | wet weight of the lung (bleomycin-treated mice; [12]): significantly reduced | accumulation of cells in the BAL (bleomycin-treated mice; [13]): significantly reduced | accumulation of protein in the BAL (bleomycin-treated mice; [13]): significantly reduced | increase in lung wet weight (bleomycin-treated mice; [13]): significantly reduced | expression of CTGF in the lung tissue (bleomycin-treated mice; [14]): significantly reduced | expression of interleukin-6 (IL-6) in the lung tissue (bleomycin-treated mice; [14]): significantly reduced | expression of plasminogen activation inhibitor-1 (PAI-1) in the lung tissue (bleomycin-treated mice; [14]): significantly reduced | expression of glucocorticoid regulated gene GILZ in lung (bleomycin-treated mice; 21 day experiment, equally in saline and bleomycin-treated mice): induced | increase in the BAL protein level (HDM allergen; HDM allergen 25 μg/35 μL daily intranasal, aerosol PF670462 3 mg/ml, Budesonide 0.5 mg/ml): regulated | Lymphocyte numbers in BAL (HDM allergen; HDM allergen challenged mice, aerosol treatments): reduced | BAL cell number (RSV [6]): not significantly reduced
